Laboratory results taken from article PMC10584170, “Machine learning-based phenotypic imaging to characterise the targetable biology of Plasmodium falciparum male gametocytes for the development of transmission-blocking antimalarials” (PLOS Pathogens, 2023).
Read-outs that look alike come from different tables or passages of the source.

Columns and labels:
[1] = test system: P. falciparum female gametocytes; assay: P. falciparum Dual Gamete Formation Assay (PfDGFA), female readout (Pfs25-positive female gametes); type: cell-based, Plasmodium falciparum NF54; settings: for HitlevelF: number of replicates with >50% inhibition in the female readout; for Selectivity ratio F: HepG2 Tox50 versus female IC50; for inhibition at 2 µM / IC50: Plasmodium falciparum; for inhibition at 2 µM: 24h preincubation with gametocytes; for IC50: PfDGFA, 24 h incubation with gametocytes before induction, female gamete readout, read-out: Female IC50
Protocol: (§1) P. falciparum NF54 (originally isolated from an imported malaria case in the Netherlands in the 1980s; BEI Resources, cat. No. MRA-1000) strain asexual parasites were maintained between 0.3–5% parasitaemia by regular passage in complete culture medium (RPMI supplemented with 25 mM HEPES, 50 μg ml^−1 hypoxanthine, 4.8 g l^−1 NaHCO3, 2mM L-glutamine, 5% pooled type AB serum, 0.5% Albumax II (Gibco)) at 4% haematocrit in washed whole blood (National Blood and Transfusion Service or Centro de Transfusiones de la Comunidad de Madrid CTCM) under a 1% O2/3% CO2/96% N2 environment. Gametocytes were induced by seeding culture flasks at 2% parasitaemia/4% haematocrit and subjecting them to daily medium changes for 14 days whilst maintaining a temperature of 37°C at all times. On Day 14, the maturity of gametocytes was assessed by quantifying male gametogenesis (exflagellation). A 20 μl sample of gametocyte culture was mixed with equal volume of ookinete medium (complete culture medium supplemented with 0.1 μM xanthurenic acid) at room temperature and transferred to a haemocytometer. After 20 min at room temperature, exflagellation was accurately quantified as described in Delves et al. 2016 [17].
(§2) The Pf DGFA was performed as described in Delves et al. 2016 [17]. […] Plates were then incubated for 24 h at 37°C in a humidified box under a 1% O2/3% CO2/96% N2 gas mix. Gametogenesis was triggered by addition of 10 μl per well of ookinete medium + 0.27 μg ml^-1 Cy3-labelled anti-Pfs25 antibody. Plates were incubated on a metal block at 4°C for 4 min to ensure even cooling, then 28°C for a further 4 min. Exflagellation was recorded by capturing 10 frames over 1 s under brightfield illumination using a x4 objective with a 1.5x zoom (effectively x6) attached to an automated Nikon Ti fluorescence microscope. After recording exflagellation, plates were incubated for a further 24 h in the dark at 28°C to ensure maximal expression of Pfs25 by female gametes. The plates were then returned to the microscope and female gametes imaged at x6 using fluorescence microscopy.
(§3) Exflagellation centres and female gametes were quantified using custom image analysis pipelines developed within ICY Bioimage Analysis (https://icy.bioimageanalysis.org/).

[2] = test system: P. falciparum male gametocytes; assay: P. falciparum Dual Gamete Formation Assay (PfDGFA), male readout (exflagellation); type: cell-based, Plasmodium falciparum NF54; settings: for HitlevelM: number of replicates with >50% inhibition in the male readout; for Selectivity Ratio M: HepG2 Tox50 versus male IC50; for inhibition at 2 µM / IC50: Plasmodium falciparum; for inhibition at 2 µM: 24h preincubation with gametocytes; for IC50: PfDGFA, 24 h incubation with gametocytes before induction, exflagellation readout, read-out: Male IC50
Protocol: as §1, §2, §3

[3] = 2µM, 24h preincubation with gametocytes prior to induction of gametogenesis, average of replicates
[4] = 2µM, 24h preincubation with gametocytes prior to induction of gametogenesis, replicate R1
[5] = 2µM, 24h preincubation with gametocytes prior to induction of gametogenesis, replicate R3
[6] = 2µM, 24h preincubation with gametocytes prior to induction of gametogenesis, replicate R4
[7] = PfDGFA at 2µM, 24h preincubation with gametocytes prior to induction of gametogenesis, replicate R1
[8] = PfDGFA at 2µM, 24h preincubation with gametocytes prior to induction of gametogenesis, replicate R3
[9] = PfDGFA at 2µM, 24h preincubation with gametocytes prior to induction of gametogenesis, replicate R4
[10] = PfDGFA at 2µM, 24h preincubation, average of replicates
[11] = PfDGFA at 2µM, average of replicates, read-out: Average inhibition female (%)
[12] = PfDGFA at 2µM, replicate R1, read-out: % inhibition female (individual replicates) R1
[13] = PfDGFA at 2µM, replicate R2, read-out: % inhibition female (individual replicates) R2
[14] = PfDGFA at 2µM, replicate R3, read-out: % inhibition female (individual replicates) R3
[15] = PfDGFA at 2µM, replicate R4, read-out: % inhibition female (individual replicates) R4
[16] = PfDGFA at 2µM, average of replicates, read-out: Average inhibition male (%)
[17] = PfDGFA at 2µM, replicate R1, read-out: % inhibition male (individual replicates) R1
[18] = PfDGFA at 2µM, replicate R2, read-out: % inhibition male (individual replicates) R2
[19] = PfDGFA at 2µM, replicate R3, read-out: % inhibition male (individual replicates) R3
[20] = PfDGFA at 2µM, replicate R4, read-out: % inhibition male (individual replicates) R4

Structure (SMILES)	Average inhibition female (%) [1, 3] [%]	% inhibition female (individual replicates) R1 [1, 4] [%]	% inhibition female (individual replicates) R3 [1, 5] [%]	% inhibition female (individual replicates) R4 [1, 6] [%]	HitlevelF ([1]; 2µM, 24h preincubation)	Average inhibition male (%) [2, 3] [%]	% inhibition male (individual replicates) R1 [2, 4] [%]	% inhibition male (individual replicates) R3 [2, 5] [%]	% inhibition male (individual replicates) R4 [2, 6] [%]	HitlevelM ([2]; 2µM, 24h preincubation)	% inhibition female (individual replicates) R1 [1, 7] [%]	% inhibition female (individual replicates) R3 [1, 8] [%]	% inhibition female (individual replicates) R4 [1, 9] [%]	Average inhibition female (%) [1, 10] [%]	% inhibition male (individual replicates) R1 [2, 7] [%]	% inhibition male (individual replicates) R4 [2, 9] [%]	Average inhibition male (%) [2, 10] [%]	Selectivity ratio F [1]	inhibition at 2 µM [1, 11] [%]	inhibition at 2 µM [1, 12] [%]	further results
CC(C)(C)Nc1cc(C2CC2)nc(-c2ccccn2)n1 [TCMDC-124453]	32.5	36.3	27.2	34.1	0	8.7	15.7	8.7	17.6	0	–	–	–	–	–	–	–	–	–	–	–
Cc1ccc(-c2nnc3c4ccccc4c(C)nn23)cc1S(=O)(=O)N1CCN(CCO)CC1 [TCMDC-124482]	–	–	–	–	–	–	–	–	–	–	11.9	-40.2	14.7	-3.6	14.3	34.9	14.9	–	–	–	% inhibition male (individual replicates) R3 [2, 8]: -2.0%
Cn1c(Sc2ncnc3sccc23)nc2ccccc21 [TCMDC-124514]	–	–	–	–	–	–	–	–	–	–	–	–	–	–	–	–	–	179.15	56.9	48.2	inhibition at 2 µM [1, 13]: 73.8%; inhibition at 2 µM [1, 14]: 37.5%; inhibition at 2 µM [1, 15]: 68.1%; IC50 [1]: 560 nM; HitlevelF ([1]; 2µM): 2; Selectivity Ratio M [2]: 138.65; inhibition at 2 µM [2, 16]: 74.4%; inhibition at 2 µM [2, 17]: 82.1%; inhibition at 2 µM [2, 18]: 75.9%; inhibition at 2 µM [2, 19]: 86.7%; inhibition at 2 µM [2, 20]: 52.9%; IC50 [2]: 720 nM; HitlevelM ([2]; 2µM): 4
O=C(NC1CCN(Cc2ccccc2)CC1)c1cc(C(=O)NC2CCN(Cc3ccccc3)CC2)cc(C(=O)NC2CCN(Cc3ccccc3)CC2)c1 [TCMDC-124568]	–	–	–	–	–	–	–	–	–	–	–	–	–	–	–	–	–	10.00	37.6	24.6	inhibition at 2 µM [1, 13]: 60.5%; inhibition at 2 µM [1, 14]: 22.2%; inhibition at 2 µM [1, 15]: 43.3%; IC50 [1]: > 10000 nM; HitlevelF ([1]; 2µM): 1; Selectivity Ratio M [2]: 12.97; inhibition at 2 µM [2, 16]: 80%; inhibition at 2 µM [2, 17]: 85%; inhibition at 2 µM [2, 18]: 82%; inhibition at 2 µM [2, 19]: 68.9%; inhibition at 2 µM [2, 20]: 84.2%; IC50 [2]: 7710 nM; HitlevelM ([2]; 2µM): 4
COc1cc(C(=O)NC2CCc3ccccc32)cc(Cl)c1OC (stereo not shown) [TCMDC-124601]	–	–	–	–	–	–	–	–	–	–	1.9	-2.4	1.9	-0.8	0.65	7.9	1.1	–	–	–	–
CN1CCC(N2CCC(Oc3cccc(C(=O)NCCCC4CCCC4)c3)CC2)CC1 [TCMDC-124677]	28.5	33.3	20.8	15.0	0	46.8	55.2	20.7	57.6	3	–	–	–	–	–	–	–	–	–	–	–
